The target of this experiment is T1, CSBP/p38 (Homo sapiens, UniProt Q16539).
T1 construct: made in house; host or cells: yeast
The experiment in a line: CSBP/p38 Kinase Assay. It is filed as biochemical. As to conditions: 32P transfer from ATP to EGFR-derived peptide T669; yeast-expressed, activated p38; 0.17 mM ATP; "this binding assay or a similar assay"; read-out: IC50 (positive inhibitory activity). As to the method: This assay measures the CSBP/p38-catalyzed transfer of ^32p from [a−^32P]ATP to threonine residue in an epidermal growth factor receptor (EGFR)-derived peptide (T669) with the following sequence: […] (residues 661-681). (See Gallagher et al., “Regulation of Stress Induced Cytokine Production by Pyridinyl Imidazoles: Inhibition of CSBP Kinase”, BioOrganic & Medicinal Chemistry, 1997, 5, 49-64).
Reactions were carried in round bottom 96 well plate (from Coming) in a […] volume. Reactions contained (in final concentration): 25 mM Hepes, pH 7.5; 8 mM MgCl2; 0.17 mM ATP (the Km[ATP] of p38 (see Lee et al., Nature 300, n72 pg. 639-746 (December 1994)); 2.5 uCi of [g-32P]ATP; 0.2 mM sodium orthovanadate; 1 mM DTT; 0.1% BSA; 10% glycerol; 0.67 mM T669 peptide; and 24 nM of yeast-expressed, activated and purified p38. Reactions were initiated by the addition of [gamma-32P]Mg/ATP, and incubated for 25 min. at 37° C. Inhibitors (dissolved in DMSO) were incubated with the reaction mixture on ice for 30 minutes prior to adding the 32P-ATP. Final DMSO concentration was 0.16%. Reactions were terminated by adding 10 ul of 0.3 M phosphoric acid, and phosphorylated peptide was isolated from the reactions by capturing it on p81 phosphocellulose filters. Filters were washed with 75 mM phosphoric acids, and incorporated 32P was quantified using beta scintillation counter. […]

SMILES strings stand for the structures. Bounds are passed on as bounds.

The term IC50 denotes the concentration that inhibits the measured activity by half.

T1 sequence (Q16539 whole entry): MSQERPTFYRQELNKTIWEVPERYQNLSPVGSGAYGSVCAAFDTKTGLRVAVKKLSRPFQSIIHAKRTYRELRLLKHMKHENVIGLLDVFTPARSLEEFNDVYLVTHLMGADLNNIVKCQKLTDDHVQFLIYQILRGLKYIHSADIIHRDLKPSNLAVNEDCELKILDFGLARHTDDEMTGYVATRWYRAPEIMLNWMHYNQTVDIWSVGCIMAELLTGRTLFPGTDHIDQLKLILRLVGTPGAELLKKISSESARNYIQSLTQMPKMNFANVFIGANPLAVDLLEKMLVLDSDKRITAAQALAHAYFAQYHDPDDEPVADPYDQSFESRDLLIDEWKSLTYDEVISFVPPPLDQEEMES

Regarding `O=C1NCc2cc(Nc3ccccc3)ccc2N1c1ccccc1` [Example 1, 1-Phenyl-2-oxo-3.4-dihydro-6-phenylaminoquinazoline], the concentration for half-maximal inhibition (IC50) was below 50 µM.

The record behind these values is US6982270B1, “3,4-dihydro-(1H)quinazolin-2-one compounds as CSBP/p38 kinase inhibitors” (SmithKline Beecham Corporation, priority 1999, dated 2006).
